Legend:
Assay type in all cases: binding
[1] = target: T1, HCoV-229E Spike (Human coronavirus 229E, UniProt P15423); assay: SPR (Reichert4, CM5 chip, Spike immobilised)
T1 construct: gene S
Excerpt: SPR (Reichert4, CM5 chip, Spike immobilised) on HCoV-229E Spike | we observed its interaction with the Spike proteins of various coronaviruses in vitro (Figure 5C)

[2] = target: T2, HCoV-OC43 Spike (Human coronavirus OC43, UniProt P36334); assay: SPR (Reichert4, CM5 chip, Spike immobilised)
T2 construct: gene S
T2 sequence (P36334 14-1353): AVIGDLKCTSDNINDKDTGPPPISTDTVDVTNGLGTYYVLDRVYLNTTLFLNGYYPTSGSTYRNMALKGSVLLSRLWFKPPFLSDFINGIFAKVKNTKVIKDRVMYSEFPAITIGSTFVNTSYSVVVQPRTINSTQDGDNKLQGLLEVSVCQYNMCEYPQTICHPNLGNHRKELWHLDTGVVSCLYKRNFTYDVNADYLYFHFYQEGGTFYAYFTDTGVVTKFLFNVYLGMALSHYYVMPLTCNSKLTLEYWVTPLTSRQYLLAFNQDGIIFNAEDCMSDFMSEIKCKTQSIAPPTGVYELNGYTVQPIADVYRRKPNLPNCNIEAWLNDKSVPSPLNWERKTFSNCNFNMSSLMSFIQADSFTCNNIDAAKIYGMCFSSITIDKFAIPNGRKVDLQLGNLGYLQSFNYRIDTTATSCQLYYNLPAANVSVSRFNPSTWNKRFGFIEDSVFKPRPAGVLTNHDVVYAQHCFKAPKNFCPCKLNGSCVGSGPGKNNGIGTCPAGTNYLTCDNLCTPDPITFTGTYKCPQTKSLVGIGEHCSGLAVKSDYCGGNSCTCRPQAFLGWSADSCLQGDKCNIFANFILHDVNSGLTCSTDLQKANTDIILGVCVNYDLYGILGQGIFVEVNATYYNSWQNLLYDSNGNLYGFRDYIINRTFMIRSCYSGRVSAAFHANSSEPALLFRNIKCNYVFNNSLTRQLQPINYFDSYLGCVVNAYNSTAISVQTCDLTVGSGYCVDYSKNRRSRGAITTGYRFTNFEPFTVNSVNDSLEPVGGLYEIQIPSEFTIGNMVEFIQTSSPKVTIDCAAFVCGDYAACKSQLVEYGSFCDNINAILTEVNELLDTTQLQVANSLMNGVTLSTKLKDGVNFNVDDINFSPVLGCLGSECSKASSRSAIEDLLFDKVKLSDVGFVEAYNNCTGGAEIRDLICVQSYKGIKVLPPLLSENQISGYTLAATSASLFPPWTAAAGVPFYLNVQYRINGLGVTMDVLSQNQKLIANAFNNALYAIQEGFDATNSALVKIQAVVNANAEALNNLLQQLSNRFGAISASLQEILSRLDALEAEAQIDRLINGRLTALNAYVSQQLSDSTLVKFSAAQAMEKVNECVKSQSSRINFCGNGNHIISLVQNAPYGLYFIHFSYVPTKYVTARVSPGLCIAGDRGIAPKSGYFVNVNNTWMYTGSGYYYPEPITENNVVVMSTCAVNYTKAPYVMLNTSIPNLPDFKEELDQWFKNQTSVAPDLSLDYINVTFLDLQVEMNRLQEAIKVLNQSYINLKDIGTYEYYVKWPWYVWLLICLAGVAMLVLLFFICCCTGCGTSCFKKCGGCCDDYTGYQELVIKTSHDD
Excerpt: SPR (Reichert4, CM5 chip, Spike immobilised) on HCoV-OC43 Spike | we observed its interaction with the Spike proteins of various coronaviruses in vitro (Figure 5C)

[3] = target: T3, hTMPRSS2 (Homo sapiens, UniProt O15393); assay: SPR (CM5 chip, hTMPRSS2 immobilised)
T3 construct: gene TMPRSS2; purified protein; immobilised on CM5 chip
T3 sequence (O15393 whole entry): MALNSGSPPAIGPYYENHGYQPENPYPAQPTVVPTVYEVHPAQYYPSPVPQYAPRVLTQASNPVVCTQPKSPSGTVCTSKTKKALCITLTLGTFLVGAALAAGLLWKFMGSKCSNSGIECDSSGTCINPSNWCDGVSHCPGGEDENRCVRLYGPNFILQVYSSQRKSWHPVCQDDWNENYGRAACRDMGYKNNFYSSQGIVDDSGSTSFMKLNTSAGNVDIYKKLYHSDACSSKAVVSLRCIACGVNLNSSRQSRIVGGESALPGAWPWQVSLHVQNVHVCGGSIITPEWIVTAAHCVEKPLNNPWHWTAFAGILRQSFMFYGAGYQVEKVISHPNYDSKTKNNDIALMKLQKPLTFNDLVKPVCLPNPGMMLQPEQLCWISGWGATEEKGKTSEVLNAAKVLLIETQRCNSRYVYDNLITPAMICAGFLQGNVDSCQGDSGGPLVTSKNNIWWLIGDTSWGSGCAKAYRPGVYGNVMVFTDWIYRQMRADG
Excerpt: SPR (CM5 chip, hTMPRSS2 immobilised) on hTMPRSS2 | Through SPR assay, we validated that tetrandrine could also bind to TMPRSS2

T1 sequence (P15423 16-1173): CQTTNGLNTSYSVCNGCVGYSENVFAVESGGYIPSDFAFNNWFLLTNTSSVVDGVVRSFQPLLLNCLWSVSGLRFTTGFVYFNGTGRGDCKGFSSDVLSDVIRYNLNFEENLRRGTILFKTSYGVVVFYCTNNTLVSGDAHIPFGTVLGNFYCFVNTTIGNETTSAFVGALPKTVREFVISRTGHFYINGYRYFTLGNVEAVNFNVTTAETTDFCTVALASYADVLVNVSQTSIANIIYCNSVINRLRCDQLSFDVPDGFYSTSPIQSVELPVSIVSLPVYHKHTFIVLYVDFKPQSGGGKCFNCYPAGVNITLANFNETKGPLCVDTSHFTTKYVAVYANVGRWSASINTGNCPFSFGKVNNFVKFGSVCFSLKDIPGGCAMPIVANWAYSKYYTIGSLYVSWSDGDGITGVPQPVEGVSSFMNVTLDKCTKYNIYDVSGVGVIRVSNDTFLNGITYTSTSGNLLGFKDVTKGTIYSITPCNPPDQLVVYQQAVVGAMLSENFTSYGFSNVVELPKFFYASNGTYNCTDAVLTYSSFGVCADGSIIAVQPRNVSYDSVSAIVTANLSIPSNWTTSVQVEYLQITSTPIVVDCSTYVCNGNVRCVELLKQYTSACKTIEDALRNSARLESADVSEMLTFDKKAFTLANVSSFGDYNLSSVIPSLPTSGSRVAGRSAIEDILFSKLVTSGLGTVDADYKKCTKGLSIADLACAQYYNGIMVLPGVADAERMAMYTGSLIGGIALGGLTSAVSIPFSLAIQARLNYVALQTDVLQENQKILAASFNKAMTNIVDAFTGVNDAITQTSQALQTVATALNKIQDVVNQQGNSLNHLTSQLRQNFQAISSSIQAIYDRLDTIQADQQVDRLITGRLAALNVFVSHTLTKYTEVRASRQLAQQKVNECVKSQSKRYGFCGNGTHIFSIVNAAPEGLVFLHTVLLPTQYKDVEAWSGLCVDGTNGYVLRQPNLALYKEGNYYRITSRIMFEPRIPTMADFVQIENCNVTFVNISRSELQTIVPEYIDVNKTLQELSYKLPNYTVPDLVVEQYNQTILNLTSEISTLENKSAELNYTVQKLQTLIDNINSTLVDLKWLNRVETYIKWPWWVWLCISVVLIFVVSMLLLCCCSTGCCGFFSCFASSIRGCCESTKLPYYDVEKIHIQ

Work on COc1ccc2cc1Oc1ccc(cc1)C[C@H]1c3cc(c(OC)cc3CCN1C)Oc1c(OC)c(OC)cc3c1[C@H](C2)N(C)CC3 [tetrandrine] yielded a Kd [1] of about 0.53 µM, a Kd [2] of about 21.3 µM and a Kd [3] of 4.59 µM.
